The record followed here is US9145402B2, “Aminopyrimidine derivatives as LRRK2 modulators” (Genentech, Inc., priority 2011, dated 2015).

pKi: −log10 of the molar value.

Sequence of LRRK2 (Q5S007 970-2527 G2019S): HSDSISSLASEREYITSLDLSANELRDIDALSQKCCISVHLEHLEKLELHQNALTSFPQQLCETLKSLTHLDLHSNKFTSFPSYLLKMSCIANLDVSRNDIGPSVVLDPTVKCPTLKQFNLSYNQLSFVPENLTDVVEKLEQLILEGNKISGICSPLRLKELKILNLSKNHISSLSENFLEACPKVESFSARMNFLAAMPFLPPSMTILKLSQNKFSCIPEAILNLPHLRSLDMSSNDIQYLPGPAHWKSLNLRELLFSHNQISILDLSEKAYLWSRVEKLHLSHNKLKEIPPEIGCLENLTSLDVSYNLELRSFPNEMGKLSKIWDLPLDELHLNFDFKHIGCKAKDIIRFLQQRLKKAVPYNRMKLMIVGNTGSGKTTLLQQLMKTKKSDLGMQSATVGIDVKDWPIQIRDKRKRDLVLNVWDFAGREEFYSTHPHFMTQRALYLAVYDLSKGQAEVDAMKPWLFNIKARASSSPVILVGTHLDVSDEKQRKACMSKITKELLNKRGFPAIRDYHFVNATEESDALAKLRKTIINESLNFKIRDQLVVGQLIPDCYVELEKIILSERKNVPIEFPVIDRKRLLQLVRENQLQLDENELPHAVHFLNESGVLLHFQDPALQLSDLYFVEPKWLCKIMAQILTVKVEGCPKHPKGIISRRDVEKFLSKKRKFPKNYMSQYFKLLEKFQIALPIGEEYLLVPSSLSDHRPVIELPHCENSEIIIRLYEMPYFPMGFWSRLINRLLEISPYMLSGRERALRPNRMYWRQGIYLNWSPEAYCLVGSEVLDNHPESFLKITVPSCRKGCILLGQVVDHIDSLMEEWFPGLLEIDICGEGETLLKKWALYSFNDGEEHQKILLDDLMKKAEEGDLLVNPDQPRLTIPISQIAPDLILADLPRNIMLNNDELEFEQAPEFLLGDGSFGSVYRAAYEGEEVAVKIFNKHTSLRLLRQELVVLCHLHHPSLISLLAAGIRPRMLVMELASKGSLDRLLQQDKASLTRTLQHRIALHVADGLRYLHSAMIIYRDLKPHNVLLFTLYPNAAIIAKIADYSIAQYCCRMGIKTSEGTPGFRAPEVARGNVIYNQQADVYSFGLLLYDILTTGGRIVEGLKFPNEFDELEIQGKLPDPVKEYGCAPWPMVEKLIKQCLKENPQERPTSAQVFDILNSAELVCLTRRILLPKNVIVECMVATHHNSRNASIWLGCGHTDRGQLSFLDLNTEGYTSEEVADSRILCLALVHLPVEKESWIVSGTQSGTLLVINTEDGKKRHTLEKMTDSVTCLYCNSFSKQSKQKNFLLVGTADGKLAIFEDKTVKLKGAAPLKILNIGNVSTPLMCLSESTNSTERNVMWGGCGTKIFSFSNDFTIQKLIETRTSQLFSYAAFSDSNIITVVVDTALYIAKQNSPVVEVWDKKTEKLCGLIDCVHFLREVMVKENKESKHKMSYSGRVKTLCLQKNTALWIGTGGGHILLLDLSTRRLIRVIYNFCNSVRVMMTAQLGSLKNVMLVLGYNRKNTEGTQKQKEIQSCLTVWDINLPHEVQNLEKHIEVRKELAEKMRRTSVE

The target of the assay is LRRK2 (Homo sapiens (Human), UniProt Q5S007, G2019S). Nature of the assay: In Vitro LRRK2 LabChip Assay (LRRK2 Ki). Format: biochemical. On the procedure:
In Vitro LRRK2 LabChip Assay
This assay was used to determine a compound's potency in inhibiting activity of LRRK2 by determining, Kiapp, IC50, or percent inhibition values. In a polypropylene plate, LRRK2, fluorescently-labeled peptide substrate, ATP and test compound were incubated together. Using a LabChip 3000 (Caliper Life Sciences), after the reaction the substrate was separated by capillary electrophoresis into two populations: phosphorylated and unphosphorylated. The relative amounts of each were quantitated by fluorescence intensity. LRRK2 Ki was determined according to the equation: Y=V0*(1−((x+Ki*(1+S/Km)+Et)/(2*Et)−(((x+Ki*(1+S/Km)+Et)^2−(4*Et*x))^0.5)/(2*Et))). Ki values in Table 4 and elsewhere herein are shown in μM.
Assay conditions and materials used were as follows:
Kinase reaction time: 2 hours
Wild type in 5 mM MgCl2: 80 μM
Solid Support: Black 50 μL volume polypropylene 384 well plate (MatriCal cat #MP101-1-PP)
Non-binding plate: 384 well clear V-bottom polypropylene plates (Greiner cat #781280).
ATP: 10 mM ATP (Cell Signaling cat #9804).
Coating Reagent #3: Coating Reagent #3 (Caliper).
Complete Reaction Buffer: H2O/25 mM Tris, pH 8.0/5 mM MgCl2/2 mM DTT/0.01% Triton X-100.
Stop Solution: H2O/100 mM HEPES, pH 7.2/0.015% Brij-35/0.2% Coating Reagent #3/20 mM EDTA.
Separation Buffer: H2O/100 mM HEPES, pH 7.2/0.015% Brij-35/0.1% Coating Reagent #3/1:200 Coating Reagent #8/10 mM EDTA/5% DMSO.
Compound Plate Preparation:
For serial dilutions, 34.6 μl DMSO was added to columns 3-24. For the assay controls, 37.5 μl DMSO was added to columns 1 and 2 of rows A and P. a,d and 50 μl 25 μM G-028831 (Staurosporine) was added to columns 1 and 2, row B. For the samples: to start at 100 μM, 37.5 μl DMSO was to columns 1 and 2, then 12.5 μl 10 mM compound; to start at 10 μM, 78 μl DMSO was added to columns 1 & 2, then 2 μl 10 mM compound; and to start at 1 μM, 25 μM compound (2 μl 10 mM cmpd+798 μl DMSO) was added to empty columns 1 and 2. A Precision instrument was used to perform 1:3.16 serial dilutions (“PLK_BM_serial_halflog”).
ATP was diluted to 282.1 μM in Complete Kinase Buffer (final concentration was 130 μM).
Total and Blank Preparation:
In Complete Reaction Buffer, substrate was diluted to 4 μM. Equal volumes of Complete Reaction Buffer and 4 μM substrate were combined to obtain the blank. Equal volumes of Complete Reaction Buffer and 4 μM substrate were combined and to the combined solution was added 2× final LRRK2 concentration.
To a 50 μl polypropylene plate, 5 μl/well buffer/substrate was added by hand to Blank wells. A Biomek FX was used to start the kinase reaction (“PLK SAR 23 ATP”). The following were added to the appropriate wells:
5 μl/well compound/ATP in Assay Plate;
5 μl/well kinase/substrate in Assay Plate;
The plate was incubated for 2 hours in the dark. Biomek FX was used to stop the kinase reaction (“PLK Stop”), and 10 μl/well Stop solution was added to the Assay Plate. Results were read on the LabChip 3000.
The LabChip 3000 was run using the job “LRRK2 IC50” with the following job settings:
Downstream voltage: −500 V
Upstream voltage: −2350 V
Post sample buffer sip time: 75 seconds
Post dye buffer sip time: 75 seconds
Final delay time: 200 seconds
For `CNc1nc(Nc2ccc(S(C)(=O)=O)cc2OC)ncc1C(F)(F)F` [Example 1, N2-(2-Methoxy-4-(methylsulfonyl)phenyl)-N4-methyl-5-(trifluoromethyl)pyrimidine-2,4-diamine], the negative logarithm of the Ki (pKi) (as a rule, the Ki on a negative log10 scale, so that one unit is a factor of ten) was 8.70. With `CNc1nc(Nc2ccc(S(C)(=O)=O)cc2OC)ncc1Cl` [Example 2, 5-Chloro-N2-(2-methoxy-4-(methylsulfonyl)phenyl)-N4-methylpyrimidine-2,4-diamine] the figure was 8.70; with `CNc1nc(Nc2cc(F)c(C#N)cc2OC)ncc1C(F)(F)F` [Example 3, 2-Fluoro-5-methoxy-4-(4-(methylamino)-5-(trifluoromethyl)pyrimidin-2-ylamino)benzonitrile], 7.66; with `CNc1nc(Nc2ccc(C#N)cc2OC)ncc1C(F)(F)F` [Example 4, 3-Methoxy-4-(4-(methylamino)-5-(trifluoromethyl)pyrimidin-2-ylamino)benzonitrile], 8.10.

`CNc1nc(Nc2ccc(C#N)cc2OC)ncc1Cl` [Example 5, 4-(5-Chloro-4-(methylamino)pyrimidin-2-ylamino)-3-methoxybenzonitrile]: the pKi was 8.10. Consider `COc1nc(Nc2ccc(S(C)(=O)=O)cc2Cl)ncc1Cl` [Example 6, (2-Chloro-4-methanesulfonyl-phenyl)-(5-chloro-4-methoxy-pyrimidin-2-yl)-amine], for which the pKi was 7.21. `CNc1nc(Nc2ccc(S(C)(=O)=O)cc2Cl)ncc1C(F)(F)F` [Example 7, N2-(2-Chloro-4-methanesulfonyl-phenyl)-N4-methyl-5-trifluoromethyl-pyrimidine-2,4-diamine] gave a negative logarithm of the Ki (pKi) of 8.10.

On to `CNc1nc(Nc2ccc(S(C)(=O)=O)cc2Cl)ncc1Cl` [Example 8, 5-Chloro-N2-(2-chloro-4-methanesulfonyl-phenyl)-N4-methyl-pyrimidine-2,4-diamine], for which the pKi is 8.10.

`CNc1nc(Nc2ccc(CN3CCOCC3)cc2OC)ncc1C(F)(F)F` [Example 9, N2-(2-Methoxy-4-morpholin-4-ylmethyl-phenyl)-N4-methyl-5-trifluoromethyl-pyrimidine-2,4-diamine]: the pKi is 8.52.

Compound `CNc1nc(Nc2cc(C)c(C#N)cc2Cl)ncc1C(F)(F)F` [Example 10, 5-Chloro-2-methyl-4-(4-methylamino-5-trifluoromethyl-pyrimidin-2-ylamino)-benzonitrile] gave a pKi of 7.34. With `CNc1nc(Nc2cc(F)c(CN3CCOCC3)cc2OC)ncc1C#N` [Example 11, 2-(5-Fluoro-2-methoxy-4-morpholin-4-ylmethyl-phenylamino)-4-methylamino-pyrimidine-5-carbonitrile] the figure was 7.57; with `CCNc1nc(Nc2cc(F)c(CN3CCOCC3)cc2OC)ncc1C#N` [Example 12, 4-Ethylamino-2-(5-fluoro-2-methoxy-4-morpholin-4-ylmethyl-phenylamino)-pyrimidine-5-carbonitrile], 7.85. With `CNc1nc(Nc2cc(C)c(C#N)cc2OC)ncc1C(F)(F)F` [Example 13, 5-Methoxy-2-methyl-4-(4-methylamino-5-trifluoromethyl-pyrimidin-2-ylamino)-benzonitrile] the figure was 7.92; with `CNc1nc(Nc2cc(F)c(S(C)(=O)=O)cc2OC)ncc1C(F)(F)F` [Example 15, N2-(5-Fluoro-4-methanesulfonyl-2-methoxy-phenyl)-N4-methyl-5-trifluoromethyl-pyrimidine-2,4-diamine], 8.52; with `CNc1nc(Nc2ccc(S(C)(=O)=O)cc2OC(C)C)ncc1C(F)(F)F` [Example 16, N2-(2-Isopropoxy-4-methanesulfonyl-phenyl)-N4-methyl-5-trifluoromethyl-pyrimidine-2,4-diamine], 7.77. In the case of `CNc1nc(Nc2ccc(S(C)(=O)=O)cc2OCCF)ncc1Cl` [Example 17, 5-Chloro-N2-[2-(2-fluoro-ethoxy)-4-methanesulfonyl-phenyl]-N4-methyl-pyrimidine-2,4-diamine] it was 7.92. `COc1nc(Nc2ccc(S(C)(=O)=O)cc2OCCF)ncc1Cl` [Example 18, (5-Chloro-4-methoxy-pyrimidin-2-yl)-[2-(2-fluoro-ethoxy)-4-methanesulfonyl-phenyl]-amine] had a pKi of 7.92. In the case of `CNc1nc(Nc2ccc(S(C)(=O)=O)cc2OCCF)ncc1C(F)(F)F` [Example 19, N2-[2-(2-Fluoro-ethoxy)-4-methanesulfonyl-phenyl]-N4-methyl-5-trifluoromethyl-pyrimidine-2,4-diamine] it was 8.52. With `CNc1nc(Nc2cc(Cl)c(S(C)(=O)=O)cc2OC)ncc1C(F)(F)F` [Example 20, N2-(5-Chloro-4-methanesulfonyl-2-methoxy-phenyl)-N4-methyl-5-trifluoromethyl-pyrimidine-2,4-diamine] the figure was 9.00. With `CNc1nc(Nc2cc(F)c(CN3CCOCC3)cc2OCCF)ncc1C(F)(F)F` [Example 21, N2-[5-Fluoro-2-(2-fluoro-ethoxy)-4-morpholin-4-ylmethyl-phenyl]-N4-methyl-5-trifluoromethyl-pyrimidine-2,4-diamine] the figure was 8.40; with `CCNc1nc(Nc2cc(F)c(CN3CCOCC3)cc2OCCF)ncc1C(F)(F)F` [Example 22, N4-Ethyl-N2-[5-fluoro-2-(2-fluoro-ethoxy)-4-morpholin-4-ylmethyl-phenyl]-5-trifluoromethyl-pyrimidine-2,4-diamine], 8.70; with `CNc1nc(Nc2cc(C)c(S(C)(=O)=O)cc2OC)ncc1C(F)(F)F` [Example 23, N2-(4-Methanesulfonyl-2-methoxy-5-methyl-phenyl)-N4-methyl-5-trifluoromethyl-pyrimidine-2,4-diamine], 9.52. Take `CNc1nc(Nc2ccc(N3CCOCC3)cc2OC)ncc1Cl` [Example 24, 5-chloro-N2-(2-methoxy-4-morpholinophenyl)-N4-methylpyrimidine-2,4-diamine]: the pKi is 8.05. In the case of `CNc1nc(Nc2ccc(C(=O)O)cc2OC)ncc1Cl` [Example 25, 4-(5-chloro-4-(methylamino)pyrimidin-2-ylamino)-3-methoxybenzoic acid] it was 8.15. In the case of `CNc1nc(Nc2ccc(S(=O)(=O)N3CCOCC3)cc2OC)ncc1C(F)(F)F` [Example 26, N2-(2-methoxy-4-(morpholinosulfonyl)phenyl)-N4-methyl-5-(trifluoromethyl)pyrimidine-2,4-diamine] it was 7.33; in that of `CNc1nc(Nc2ccc(C(F)(F)F)cc2OC)ncc1C(F)(F)F` [Example 27, N2-(2-methoxy-4-(trifluoromethyl)phenyl)-N4-methyl-5-(trifluoromethyl)pyrimidine-2,4-diamine], 7.64; in that of `CNc1nc(Nc2ccc(C(F)(F)F)cc2OC)ncc1Cl` [Example 28, 5-chloro-N2-(2-methoxy-4-(trifluoromethyl)phenyl)-N4-methylpyrimidine-2,4-diamine], 7.46. With `CNc1nc(Nc2cc(Cl)c(C(=O)O)cc2OC)ncc1Cl` [Example 29, 2-chloro-4-(5-chloro-4-(methylamino)pyrimidin-2-ylamino)-5-methoxybenzoic acid] the figure was 7.44; with `CNc1nc(Nc2cc(F)c(N3CCCC3=O)cc2OC)ncc1C(F)(F)F` [Example 30, 1-(2-fluoro-5-methoxy-4-(4-(methylamino)-5-(trifluoromethyl)pyrimidin-2-ylamino)phenyl)pyrrolidin-2-one], 8.52.
